Experimental data: patent publication US8663621B2, “Identification and synthesis of a male-produced pheromone for the neotropical root weevil Diaperpes abbreviatus (coleoptera: curculionidae)” (The United States of America, as Represented by the …, priority 2012, dated 2014)
“Also recorded” adds a separate entry of the source.

Legend:
[1] = test system: Diaprepes abbreviatus antenna (male and female); assay: gas chromatograph-coupled electroantennogram detection (GC-EAD) of antennal response; conditions: for antennal response (GC-EAD) to peaks of headspace extract: hexane extract of headspace volatiles from adult males and citrus leaves (FIG. 2); for antennal response (GC-EAD): male and female antennae, 50 ng linalool and 100 ng synthetic compound in hexane (FIG. 4)
Source text: In a first assay employed to find an attractive chemical of insect origin, a gas chromatograph-coupled electroantennogram detection (GC-EAD) system was used to analyze male aeration samples. This system included an Agilent 7890A GC equipped with a split/splitless injector, an HP-1 capillary column (approximately 30 m×0.32 mm×0.25 μm, Agilent Technologies, Inc., Santa Clara, Calif., USA), a post column glass Y-tube (Supelco, Bellefonte, Pa., USA) splitter for dividing column effluent in an approximately 1:1 ratio between a flame ionization detector (FID) and a heated (200° C.) EAD transfer line. Two lengths of deactivated column (approximately 0.32 mm ID) were used to carry effluent to the FID and EAD port after the split. At the start of GC-EAD runs, the GC oven temperature was held at about 35° C. for 3 minutes and then increased to about 260° C. at a rate of about 15° C./min and held at about 260° C. for about 10 min. Injector and FID temperatures were set at about 220° C. and about 300° C., respectively. Splitless injection was used with helium as the carrier gas at a flow rate of about 2.3 ml/min. A heated transfer line emptied into a charcoal-filtered, humidified air stream (about 200 ml/min at about 30 cm/sec) that carried the effluent over an antennal preparation. The antennal preparation can be made by plucking the antenna from either a male or female insect (grasping it firmly at the base of the antenna near the head with fine forceps) and placing the antenna between two metal electrodes of a Universal EAG probe, to which small amounts of salt-free electrode gel (Spectra 360, Parker Laboratories, Fairfield, N.J., USA) had been applied. The probe was connected to a type PRG-2 amplifier (Universal EAG probe, Syntech, Hilversum, The Netherlands). The humidified air stream was directed to pass over the antennal preparation generating a signal. […] […] […] […] Antennae from male and female D. abbreviatus were used as detectors to confirm antennal response to the synthetic compound.

[2] = test system: Diaprepes abbreviatus antenna (male and female); conditions: used as co-injected control for antenna viability; cited from earlier work
[3] = stability of the pheromone (lactonization; acid, heat, storage); format: physicochemical; conditions: for stability in acidic medium (lactonization to 2): acid-catalyzed THP removal, CDCl3 with residual acidity
Method: At the core of the chosen synthetic route lies a stereoselective carbocupration of α,β-acetylenic esters that was exclusively cis-stereospecific when the reaction was conducted in THF at low temperatures (Corey and Katzenellenbogen 1969, Bourque et al. 1999, Drew et al. 1999). However, a conjugate addition of a heterocuprate, formed in situ from isopropylmagnesium bromide and copper(I) iodide in the presence of N,N,N,N'-tetramethylethylenediamine ([…] et al. 1984), to the acetylenic ester (FIG. 1) proceeded with some loss of stereoselectivity resulting in a mixture of E and Z olefinic esters in an approximately 92:8 ratio. During acid-catalyzed removal of the tetrahydropyranyl (THP) protecting group, the ratio of 1E and 1Z dropped to approximately 86:14 and a considerable amount of lactone 2 was formed, thus indicating instability of the putative pheromone in acidic medium.

[4] = test system: Diaprepes abbreviatus adults; assay: two-choice olfactometer behavioral bioassay; format: in vivo; conditions: for Number choosing A (air) / Number choosing B (odor source): A: air vs B: odor source; for No choice (number): moved to but remained in central arena; for No response (number): remained in inlet
Method: Behavioral response to the pheromone was tested in an olfactometer (Model 4C, ARS, Inc., Micanopy, Fla. USA) wherein individual weevils (starved for about 24 h) were placed in a glass inlet and allowed to walk upwards into the center of an arena with a balanced, filtered and humidified airflow from two arms oriented at 180° to each other and outfitted with glass reservoirs containing an odor source or blank. The assays were conducted in the dark between about 9 AM and 2 PM; each run was terminated when the weevil moved into one of the glass receptacles or when about 15 min had elapsed. Assays were run in the dark because of a strong phototropic response in this insect (Lapointe and Hall 2009). Weevil position was scored as no-response (remaining in the inlet), no-choice (moving to but remaining in the central arena) or choosing one of the two arms. Responses of unmated approximately 4 to 6-week-old males and females were recorded to various odor sources: fresh young citrus leaves (flush), flush fed upon for about 24 hr by male D. abbreviatus, approximately 30 μg of methyl (E)-3-(2-hydroxyethyl)-4-methyl-2-pentenoate in approximately 10:1 hexanes:ethyl acetate pipetted onto a glass slide, and a clean glass slide. All glass components of the olfactometer were thoroughly washed between runs with warm soap and water, rinsed with methanol and air-dried. Between replications of a given treatment, the arms of the olfactometer used for that treatment were switched to control for bias in the apparatus. The number of weevils choosing a treatment arm was compared with the control arm (clean air) by the G-test (Sokal and Rohlf 1994).

CC(C)=CCC/C(C)=C/CO (single isomer, unassigned) [geraniol, reference compound]
antennal response (GC-EAD) to peaks of headspace extract [1]: positive antennal responses

C=CC(C)(O)CCC=C(C)C (single isomer, unassigned) [linalool, reference compound]
antennal response, previously determined [2]: consistent antennal response
antennal response (GC-EAD) to peaks of headspace extract [1]: positive antennal responses
antennal response (GC-EAD) [1]: Both male and female antennae responded

CC(C)=CCC/C(C)=C/C=O [geranial, reference compound]
antennal response (GC-EAD) to peaks of headspace extract [1]: positive antennal responses

CC(C)C1=CC(=O)OCC1 [lactone]
antennal response (GC-EAD) [1]: No antennal response; also recorded: Neither responded

COC(=O)/C=C(\CCO)C(C)C [methyl (E)-3-(2-hydroxyethyl)-4-methyl-2-pentenoate]
stability in acidic medium (lactonization to 2) ([3]; listed as 1E): noticeable cyclization of 1E to 2
stability in acidic medium (lactonization to 2) ([3]; listed as putative pheromone): instability
thermal stability ([3]; preparative GC with conventional injection port): thermal instability
storage stability ([3]; purified sample, up to 25° C. in aprotic solvents (benzene, hexane, ethyl acetate)): stores indefinitely
antennal response (GC-EAD) to peaks of headspace extract [1]: elicit a response from male and female antennae
antennal response (GC-EAD) [1]: Both male and female antennae responded
Number choosing A (air) ([4]; female weevils): 17
Number choosing B (odor source) ([4]; female weevils): 48
No choice (number) ([4]; female weevils): 17
No response (number) ([4]; female weevils): 71
preference for odor source versus clean air (in words) ([4]; female weevils, α=0.05, G-test): consistently moved upwind more often
preference for odor source versus clean air (in words) ([4]; female weevils, α=0.05, G-test, listed as synthetic pheromone): more often as compared to clean air
Number choosing A (air) ([4]; male weevils): 30
Number choosing B (odor source) ([4]; male weevils): 34
preference for odor source versus clean air (in words) ([4]; male weevils, listed as pheromone): did not show a clear preference
preference for odor source versus clean air (in words) ([4]; male weevils, listed as synthetic pheromone): no clear preference
No choice (number) ([4]; male weevils): 20
No response (number) ([4]; male weevils): 69

COC(=O)/C=C(/CCO)C(C)C [methyl (Z)-3-(2-hydroxyethyl)-4-methyl-2-pentenoate]
antennal response (GC-EAD) [1]: inactive
antennal response (GC-EAD) ([1]; listed as Z isomer): No antennal response; also recorded: Neither responded
